Measured values: ChEMBL document CHEMBL5726952, “Compounds” (2019)

Tests used:
Assay in all cases: Kinase Screening Assay: Compound IC50 values were determined from 10-point, 1:3 dilution curves starting at either 100 μM or 10 μM with 10 μM ATP, by Reaction Biology Corp. For the whole kinome screen compounds were screened against 340 wild type kinases at a single dose of 1 μM, in duplicate, with 10 μM of ATP by Reaction Biology Corp. The data was averaged and plotted as percentage enzyme …
[1] = molecular target: Proto-oncogene tyrosine-protein kinase receptor Ret (Homo sapiens, UniProt P07949)
[2] = molecular target: Platelet-derived growth factor receptor alpha (Homo sapiens, UniProt P16234)
[3] = molecular target: Tyrosine-protein kinase Blk (Homo sapiens, UniProt P51451)
[4] = molecular target: Mast/stem cell growth factor receptor Kit (Homo sapiens, UniProt P10721)
[5] = molecular target: Tyrosine-protein kinase HCK (Homo sapiens, UniProt P08631)

Measured: IC50

Sequence of Mast/stem cell growth factor receptor Kit (P10721 whole entry): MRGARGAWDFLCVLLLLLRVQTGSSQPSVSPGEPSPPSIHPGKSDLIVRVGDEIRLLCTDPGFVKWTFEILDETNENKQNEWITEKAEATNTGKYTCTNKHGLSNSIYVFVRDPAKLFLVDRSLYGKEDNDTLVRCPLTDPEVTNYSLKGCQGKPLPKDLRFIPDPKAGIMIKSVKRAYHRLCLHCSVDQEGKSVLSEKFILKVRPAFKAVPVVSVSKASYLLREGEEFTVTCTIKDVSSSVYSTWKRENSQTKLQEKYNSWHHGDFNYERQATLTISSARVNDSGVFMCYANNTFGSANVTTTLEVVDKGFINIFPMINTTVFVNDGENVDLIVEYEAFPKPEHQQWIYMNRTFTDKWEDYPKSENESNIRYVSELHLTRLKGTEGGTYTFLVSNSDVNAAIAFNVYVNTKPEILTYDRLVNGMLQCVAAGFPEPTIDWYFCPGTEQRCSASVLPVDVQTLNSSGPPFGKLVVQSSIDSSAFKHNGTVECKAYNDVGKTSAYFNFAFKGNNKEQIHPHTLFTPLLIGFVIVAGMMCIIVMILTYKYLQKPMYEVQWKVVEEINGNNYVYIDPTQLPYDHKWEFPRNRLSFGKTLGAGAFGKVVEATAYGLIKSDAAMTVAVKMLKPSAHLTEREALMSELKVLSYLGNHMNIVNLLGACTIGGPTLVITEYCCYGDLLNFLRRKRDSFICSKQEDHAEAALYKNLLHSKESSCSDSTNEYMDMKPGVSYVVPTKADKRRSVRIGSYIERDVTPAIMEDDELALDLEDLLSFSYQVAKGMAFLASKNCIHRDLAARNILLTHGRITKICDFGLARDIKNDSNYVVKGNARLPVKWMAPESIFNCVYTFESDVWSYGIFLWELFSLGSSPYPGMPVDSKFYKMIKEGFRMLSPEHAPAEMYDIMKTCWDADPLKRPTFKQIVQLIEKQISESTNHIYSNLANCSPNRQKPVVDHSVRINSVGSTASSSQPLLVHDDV
Sequence of Platelet-derived growth factor receptor alpha (P16234 whole entry): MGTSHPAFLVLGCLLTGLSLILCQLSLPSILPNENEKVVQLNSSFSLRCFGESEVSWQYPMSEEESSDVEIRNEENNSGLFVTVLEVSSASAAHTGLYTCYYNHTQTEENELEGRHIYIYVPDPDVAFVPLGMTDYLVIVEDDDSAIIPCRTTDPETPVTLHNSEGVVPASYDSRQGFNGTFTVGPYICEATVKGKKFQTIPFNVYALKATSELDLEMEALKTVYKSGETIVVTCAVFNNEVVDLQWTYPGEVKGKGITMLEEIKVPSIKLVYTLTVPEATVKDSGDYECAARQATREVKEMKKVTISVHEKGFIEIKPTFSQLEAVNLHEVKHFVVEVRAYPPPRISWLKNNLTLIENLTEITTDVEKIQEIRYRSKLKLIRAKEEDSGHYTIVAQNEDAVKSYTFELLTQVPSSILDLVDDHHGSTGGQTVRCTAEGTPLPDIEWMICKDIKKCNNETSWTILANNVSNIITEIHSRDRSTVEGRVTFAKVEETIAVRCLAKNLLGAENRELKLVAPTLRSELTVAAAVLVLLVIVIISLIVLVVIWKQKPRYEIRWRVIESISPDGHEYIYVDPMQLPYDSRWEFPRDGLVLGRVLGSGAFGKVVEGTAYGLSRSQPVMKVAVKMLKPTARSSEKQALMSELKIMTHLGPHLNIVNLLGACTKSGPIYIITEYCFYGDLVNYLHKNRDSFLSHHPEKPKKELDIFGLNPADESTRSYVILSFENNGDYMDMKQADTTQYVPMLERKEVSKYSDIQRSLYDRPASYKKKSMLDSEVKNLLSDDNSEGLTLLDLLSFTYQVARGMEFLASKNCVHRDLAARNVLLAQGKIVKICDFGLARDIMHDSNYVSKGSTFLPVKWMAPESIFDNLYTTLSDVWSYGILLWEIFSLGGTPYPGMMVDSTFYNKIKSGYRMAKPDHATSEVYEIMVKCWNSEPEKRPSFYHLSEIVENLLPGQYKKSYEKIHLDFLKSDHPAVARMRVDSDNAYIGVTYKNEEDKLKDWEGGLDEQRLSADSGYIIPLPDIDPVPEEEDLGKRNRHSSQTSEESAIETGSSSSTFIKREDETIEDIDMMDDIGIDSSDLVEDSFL
Sequence of Proto-oncogene tyrosine-protein kinase receptor Ret (P07949 whole entry): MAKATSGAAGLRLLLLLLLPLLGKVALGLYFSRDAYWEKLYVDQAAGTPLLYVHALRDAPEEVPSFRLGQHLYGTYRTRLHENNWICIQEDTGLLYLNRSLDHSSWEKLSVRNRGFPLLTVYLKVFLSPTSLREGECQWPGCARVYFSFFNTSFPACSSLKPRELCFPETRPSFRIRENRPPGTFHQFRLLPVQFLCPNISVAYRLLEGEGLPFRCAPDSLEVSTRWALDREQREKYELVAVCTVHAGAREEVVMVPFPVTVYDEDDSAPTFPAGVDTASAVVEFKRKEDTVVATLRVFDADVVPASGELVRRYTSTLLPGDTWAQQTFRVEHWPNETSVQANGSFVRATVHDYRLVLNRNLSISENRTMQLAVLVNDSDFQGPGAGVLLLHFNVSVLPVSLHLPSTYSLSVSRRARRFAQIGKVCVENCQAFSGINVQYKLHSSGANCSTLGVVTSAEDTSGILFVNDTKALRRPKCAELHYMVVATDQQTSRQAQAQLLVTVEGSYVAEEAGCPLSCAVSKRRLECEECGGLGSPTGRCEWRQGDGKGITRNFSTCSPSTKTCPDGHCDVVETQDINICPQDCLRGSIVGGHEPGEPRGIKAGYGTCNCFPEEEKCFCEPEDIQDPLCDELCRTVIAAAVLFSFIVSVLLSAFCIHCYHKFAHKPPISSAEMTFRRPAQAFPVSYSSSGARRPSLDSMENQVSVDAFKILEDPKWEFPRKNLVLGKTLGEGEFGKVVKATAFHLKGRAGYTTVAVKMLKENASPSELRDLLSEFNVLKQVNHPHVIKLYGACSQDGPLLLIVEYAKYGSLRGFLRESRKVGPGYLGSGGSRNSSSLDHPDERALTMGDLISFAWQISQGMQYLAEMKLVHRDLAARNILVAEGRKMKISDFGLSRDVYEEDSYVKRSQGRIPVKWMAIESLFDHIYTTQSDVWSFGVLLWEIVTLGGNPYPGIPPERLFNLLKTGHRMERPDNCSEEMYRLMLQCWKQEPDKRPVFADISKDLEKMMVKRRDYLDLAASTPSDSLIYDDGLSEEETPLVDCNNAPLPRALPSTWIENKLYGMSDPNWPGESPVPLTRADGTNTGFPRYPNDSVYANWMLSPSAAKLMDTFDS
Sequence of Tyrosine-protein kinase Blk (P51451 whole entry): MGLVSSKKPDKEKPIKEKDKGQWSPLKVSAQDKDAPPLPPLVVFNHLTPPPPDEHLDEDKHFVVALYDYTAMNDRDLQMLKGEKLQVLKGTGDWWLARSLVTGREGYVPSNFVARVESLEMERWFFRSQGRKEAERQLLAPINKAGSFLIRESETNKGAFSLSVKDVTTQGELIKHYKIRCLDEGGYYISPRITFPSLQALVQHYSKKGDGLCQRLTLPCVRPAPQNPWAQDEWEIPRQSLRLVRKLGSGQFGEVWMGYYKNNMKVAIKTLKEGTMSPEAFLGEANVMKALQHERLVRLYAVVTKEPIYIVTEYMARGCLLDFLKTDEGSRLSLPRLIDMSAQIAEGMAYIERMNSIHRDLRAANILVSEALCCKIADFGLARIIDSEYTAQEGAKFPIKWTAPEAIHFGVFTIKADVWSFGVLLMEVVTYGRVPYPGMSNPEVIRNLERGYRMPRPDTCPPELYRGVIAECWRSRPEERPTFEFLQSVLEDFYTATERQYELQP
Sequence of Tyrosine-protein kinase HCK (P08631 whole entry): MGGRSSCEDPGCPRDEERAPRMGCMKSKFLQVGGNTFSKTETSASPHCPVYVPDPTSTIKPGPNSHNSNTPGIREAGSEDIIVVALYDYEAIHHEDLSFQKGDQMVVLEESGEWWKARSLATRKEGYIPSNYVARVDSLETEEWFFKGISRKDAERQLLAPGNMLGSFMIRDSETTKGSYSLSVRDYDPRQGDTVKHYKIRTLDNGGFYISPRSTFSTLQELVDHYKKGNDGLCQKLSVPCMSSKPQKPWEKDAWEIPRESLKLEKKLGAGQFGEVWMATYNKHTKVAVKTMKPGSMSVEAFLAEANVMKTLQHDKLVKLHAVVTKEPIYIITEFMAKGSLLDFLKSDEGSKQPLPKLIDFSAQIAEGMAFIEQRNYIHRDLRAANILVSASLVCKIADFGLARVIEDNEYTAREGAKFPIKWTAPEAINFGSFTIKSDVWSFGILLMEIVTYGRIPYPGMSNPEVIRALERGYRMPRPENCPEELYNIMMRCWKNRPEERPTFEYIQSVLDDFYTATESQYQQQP

Cc1ccc(-c2nn(CCN3CCC(N(C)C)CC3)c3ncnc(N)c23)cc1
> 1000 nM: all assays above
